This is an account of results in patent publication US20250353848A1, “HETEROCYCLIC PAD4 INHIBITORS” (Celgene Corporation, priority 2022, published 2025).

Some results are limits rather than exact numbers.

For the first assay, the target named is T1, hPAD4 enzyme (Homo sapiens, UniProt Q9UM07). The assay can be described thus: RFMS Assay 1 (rapid-fire mass spectrum PAD4 inhibition assay, BAEE substrate). Type of assay: biochemical. Particulars: 5 nM hPAD4 enzyme, 250 μM BAEE, 30 mins compound and enzyme preincubation at 37° C., 90 min enzyme/substrate reaction. As to the method: Compounds were solubilized in 100% DMSO to achieve a 10 mM compound concentration. Compound stock solutions were stored at RT. A series of dilutions were prepared in DMSO and mixed 8 times with 20 μL mixing volume. Final top concentration of compound in the assay is 50 μM. Final assay conditions were as follows: • Reaction volume: 26 μl • Assay buffer: 25 mM hepes, pH 7.5, 5 mM NaCl, 1 mM DTT, 0.2 mg/ml BSA, 0.01% CHAPS, 50 μM Calcium, and 5 μM TPEN • Final concentrations: 5 nM hPAD4 enzyme, 250 μM BAEE, and 0.5% DMSO • Total incubation time: 30 mins compound and enzyme preincubation at 37° C., 90 min enzyme/substrate reaction, 30 min reaction with phenyl glyoxal at 37° C. • Stop solution: 40 μl 5% TCA in ACN
T1 sequence (Q9UM07 whole entry): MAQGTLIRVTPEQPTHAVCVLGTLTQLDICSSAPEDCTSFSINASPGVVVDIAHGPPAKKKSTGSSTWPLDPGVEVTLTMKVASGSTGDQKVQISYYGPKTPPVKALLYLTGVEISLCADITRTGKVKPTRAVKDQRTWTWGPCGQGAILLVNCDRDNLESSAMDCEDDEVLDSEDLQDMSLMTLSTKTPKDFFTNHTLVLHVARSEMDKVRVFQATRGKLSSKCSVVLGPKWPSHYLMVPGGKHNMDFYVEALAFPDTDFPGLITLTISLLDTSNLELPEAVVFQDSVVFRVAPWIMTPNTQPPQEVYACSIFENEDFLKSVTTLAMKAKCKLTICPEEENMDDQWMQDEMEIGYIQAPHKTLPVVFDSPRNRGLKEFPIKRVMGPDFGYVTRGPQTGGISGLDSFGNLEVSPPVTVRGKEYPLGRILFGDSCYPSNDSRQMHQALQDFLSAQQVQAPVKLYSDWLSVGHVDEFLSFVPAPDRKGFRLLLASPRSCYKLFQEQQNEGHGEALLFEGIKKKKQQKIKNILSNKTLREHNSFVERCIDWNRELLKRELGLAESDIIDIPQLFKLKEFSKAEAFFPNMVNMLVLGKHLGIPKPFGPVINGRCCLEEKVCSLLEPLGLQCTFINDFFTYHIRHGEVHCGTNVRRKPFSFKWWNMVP
0.13 μL of compound solution was added to 13 μL of 10 nM PAD4 in assay buffer. After 30 min 13 μl of 500 μM of BAEE was added in 25 mM hepes, pH 7.5, 5 mM NaCl, 1 mM DTT, 0.2 mg/ml BSA, 0.01% CHAPS, 50 µM Calcium, […] was added and the reaction incubated for 90 min at 37° C. The enzymatic reaction was quenched by addition of 15 μl of 6.1N TCA, 100% Final Concentration is 20%, 35 μl of 8.5 mM phenyl glyoxal (final concentration 4 mM) is then added and the reaction is incubated for 30 min at 37° C.
After 30 minutes the plates are spun down to remove all precipitate. The enzyme reaction was quenched with an equal volume of methanol containing internal standard (modified citrulline). Samples were loaded onto the Rapid Fire RF300 system (Agilent) wherein they were first sipped for 1000 ms and then directly loaded to a C18 separations cartridge using a mixture of acetonitrile containing 0.01% formic acid for 3000 ms desalting. The flow rate of the mobile phase was 1.5 ml/min. Once the samples were eluted from the cartridge, a mobile phase of acetonitrile containing 0.01% formic acid was used to move the samples into the mass spectrometer for 4000 ms at a flow rate of 1.25 ml/min/Sciex AP15500 triple quadrupole mass spectrometer (Applied Biosystems) equipped with ESI was used to analyze the peptidyl citrulline and internal standard ions.
MRM transition of product and internal standard were monitored at m/z 424.5 to 350.4 and m/z 293 to 247 respectively. The dwell time for each transition was set at 200 ms, and the ESI voltage was used at 5500 with a source temperature of 400° C. Extracted ion peaks for each transition were integrated using the Rapid Fire Integrator software. Peak area of analyte was normalized with internal standard.).
By IC50 is commonly meant the concentration that gives 50% inhibition. Consider `C[C@H](COc1nccc2cc(-c3nc4cc5c(nc4n3C)CCN(C[C@H](N)CF)C5=O)n(CC3CC3)c12)n1cnc(F)c1` [Example 83, 7-((S)-2-amino-3-fluoropropyl)-2-(1-(cyclopropylmethyl)-7-((R)-2-(4-fluoro-1H-imidazol-1-yl)propoxy)-1H-pyrrolo[2,3-c]pyridin-2-yl)-3-methyl-3,5,6,7-tetrahydro-8H-imidazo[4,5-b][1,6]naphthyridin-8-one], for which the IC50 is ≤ 10 nM.

Turning to `Cn1c(-c2cc3cccc(OC(C)(F)Cn4ccnc4)c3n2CC2CC2)nc2cc3c(nc21)CCN(C[C@H](N)CF)C3=O` (single isomer, unassigned) [Example 76a], the IC50 was 11 to 100 nM.

As for `Cn1c(-c2cc3cccc(/C=C/Cn4cnc(F)c4)c3n2CC2CC2)nc2cc3c(nc21)CCN(C[C@H](N)CF)C3=O` [Example 97, (S,E)-7-(2-amino-3-fluoropropyl)-2-(1-(cyclopropylmethyl)-7-(3-(4-fluoro-1H-imidazol-1-yl)prop-1-en-1-yl)-1H-indol-2-yl)-3-methyl-3,5,6,7-tetrahydro-8H-imidazo[4,5-b][1,6]naphthyridin-8-one], the IC50 was in the range of 11 to 100 nM.

`Cn1c(-c2cc3cccc(OCCn4cnc(Cl)n4)c3n2CC2CC2)nc2cc3c(nc21)CCN(C[C@H](N)CF)C3=O` [Example 92, (S)-7-(2-amino-3-fluoropropyl)-2-(7-(2-(3-chloro-1H-1,2,4-triazol-1-yl)ethoxy)-1-(cyclopropylmethyl)-1H-indol-2-yl)-3-methyl-3,5,6,7-tetrahydro-8H-imidazo[4,5-b][1,6]naphthyridin-8-one] yielded an IC50 of 11 to 100 nM.

For the compound `Cn1c(-c2cc3cccc(OC(C)(F)Cn4ccnc4)c3n2CC2CC2)nc2cc3c(nc21)CCN(C[C@H](N)CF)C3=O` (single isomer, unassigned) [Example 76b], the IC50 was in the range of 11 to 100 nM.

In the case of `Cn1cc(CCOc2cccc3cc(-c4nc5cc6c(nc5n4C)CCN(C[C@H](N)CF)C6=O)n(CC4CC4)c23)cn1` [Example 51, (S)-7-(2-amino-3-fluoropropyl)-2-(1-(cyclopropylmethyl)-7-(2-(1-methyl-1H-pyrazol-4-yl)ethoxy)-1H-indol-2-yl)-3-methyl-3,5,6,7-tetrahydro-8H-imidazo[4,5-b][1,6]naphthyridin-8-one], the IC50 is ≤ 10 nM.

In the case of `C[C@@H](Cn1cnc(F)c1)Oc1cccc2cc(-c3nc4cc5c(nc4n3C)CCN(C[C@H](N)CF)C5=O)n(CC3CC3)c12` [Example 66, 7-((S)-2-amino-3-fluoropropyl)-2-(1-(cyclopropylmethyl)-7-(((S)-1-(4-fluoro-1H-imidazol-1-yl)propan-2-yl)oxy)-1H-indol-2-yl)-3-methyl-3,5,6,7-tetrahydro-8H-imidazo[4,5-b][1,6]naphthyridin-8-one], the IC50 was ≤ 10 nM.

The compound `COc1cccc2cc(-c3nc4cc5c(nc4n3C)CCN(C[C@H](N)CF)C5=O)n(CCOC(F)(F)F)c12` [Example 5, (S)-7-(2-amino-3-fluoropropyl)-2-(7-methoxy-1-(2-(trifluoromethoxy)ethyl)-1H-indol-2-yl)-3-methyl-3,5,6,7-tetrahydro-8H-imidazo[4,5-b][1,6]naphthyridin-8-one] gave an IC50 of 101 to 500 nM.

`C[C@@H](COc1cccc2cc(-c3nc4cc5c(nc4n3C)CCN(C[C@H](N)CF)C5=O)n(CC3CC3)c12)n1cnc(C#N)c1` [Example 87, 1-((S)-1-((2-(7-((S)-2-amino-3-fluoropropyl)-3-methyl-8-oxo-5,6,7,8-tetrahydro-3H-imidazo[4,5-b][1,6]naphthyridin-2-yl)-1-(cyclopropylmethyl)-1H-indol-7-yl)oxy)propan-2-yl)-1H-imidazole-4-carbonitrile] displayed an IC50 of 11 to 100 nM.

For the compound `C[C@H](COc1cccc2cc(-c3nc4cc5c(nc4n3C)CCN(C[C@H](N)CF)C5=O)n(CC3CC3)c12)n1cncc1C#N` [Example 94, 1-((R)-1-((2-(7-((S)-2-amino-3-fluoropropyl)-3-methyl-8-oxo-5,6,7,8-tetrahydro-3H-imidazo[4,5-b][1,6]naphthyridin-2-yl)-1-(cyclopropylmethyl)-1H-indol-7-yl)oxy)propan-2-yl)-1H-imidazole-5-carbonitrile], the IC50 was in the range of 101 to 500 nM.

The target of another assay is T1, hPAD4 enzyme. Put plainly: RFMS Assay 2 (rapid-fire mass spectrum PAD4 inhibition assay, peptide substrate). Type of assay: biochemical. Conditions: 35 nM recombinant human PAD4, substrate TSTGGRQGSHH, room temperature for 30 minutes; read-out: human PAD4 (hPAD4) IC50, RFMS Assay 2. The method, then:
Stock compounds were dissolved and stored in 100% DMSO. Compound solutions were prepared via serial dilution at 3-fold intervals in DMSO with top compound concentration at […] in each assay. 0.25 μl of compound solution was transferred from the compound plate to the assay plate by using an acoustic dispenser. Final assay conditions: • Total reaction volume: 25 μl • Assay buffer: […] pH 7.4, 200 mM NaCl, 2 mM CaCl2, 5 mM DTT • 35 nM recombinant human PAD4 • 500 µM TSTGGRQGSHH (SEQ ID NO: 1) • 1.2% DMSO • Stop solution: 10% formic acid
Reaction mixtures were incubated at room temperature for 30 minutes. 10 μl each of the reaction mixtures was then mixed with 40 μl of 10% formic acid in a microtiter plate. The plate was frozen at −80° C. before shipping out on dry ice for RapidFire mass spectroscopy analysis.
Thawed samples were loaded onto the Rapid Fire 300 system (Agilent) wherein they were first sipped for 250 ms and then loaded onto a Agilent “C” (C18) cartridge using a mobile phase of water containing 0.09% formic acid/0.01% trifluoroacetic acid for 3000 ms desalting flowing at a rate of 1.5 ml/min. Once the samples were loaded and washed, a mobile phase of acetonitrile containing 0.09% formic acid/0.01% trifluoroacetic acid was used to elute the samples directly onto a Sciex API4000 triple quadrupole mass spectrometer for 3000 ms at a flow rate of 1.25 ml/min.
MRM transitions for substrate and product were monitored in positive ESI mode at m/z=562.3/969.7 and m/z=562.8/541.3 respectively. The dwell time for each transition was set at 100 ms, and the ESI voltage was used at 5500 with a source temperature of 650° C. Extracted ion peaks for each transition were integrated using the Rapid Fire Integrator software.
For `COc1cccc2cc(-c3nc4cc5c(nc4n3C)CCN(C[C@H](N)CF)C5=O)n(Cc3ncc(C)s3)c12` [Example 10, (S)-7-(2-amino-3-fluoropropyl)-2-(7-methoxy-1-((5-methylthiazol-2-yl)methyl)-1H-indol-2-yl)-3-methyl-3,5,6,7-tetrahydro-8H-imidazo[4,5-b][1,6]naphthyridin-8-one], the IC50 is > 1000 nM.

On to `COc1cccc2cc(-c3nc4cc5c(nc4n3C)CCN(C[C@H](N)CF)C5=O)n(Cc3nc(C)co3)c12` [Example 13, (S)-7-(2-amino-3-fluoropropyl)-2-(7-methoxy-1-((4-methyloxazol-2-yl)methyl)-1H-indol-2-yl)-3-methyl-3,5,6,7-tetrahydro-8H-imidazo[4,5-b][1,6]naphthyridin-8-one], for which the IC50 was 501 to 1000 nM.

For `CC(Cc1cnco1)Oc1cc(F)cc2cc(-c3nc4cc5c(nc4n3C)CCN(C[C@H](N)CF)C5=O)n(CC3CC3)c12` (single isomer, unassigned) [Example 65b], the IC50 lay in the range of 101 to 500 nM.

In the case of `Cc1cccc2cc(-c3nc4cc5c(nc4n3C)CCN(C[C@H](N)CF)C5=O)n(Cc3ccno3)c12` [Example 17, (S)-7-(2-amino-3-fluoropropyl)-2-(1-(isoxazol-5-ylmethyl)-7-methyl-1H-indol-2-yl)-3-methyl-3,5,6,7-tetrahydro-8H-imidazo[4,5-b][1,6]naphthyridin-8-one], the IC50 lay in the range of 501 to 1000 nM.

With `CC(Cc1cnco1)Oc1cc(F)cc2cc(-c3nc4cc5c(nc4n3C)CCN(C[C@H](N)CF)C5=O)n(CC3CC3)c12` (single isomer, unassigned) [Example 64], the IC50 lay in the range of 101 to 500 nM.

For the compound `COc1ccc2cc(-c3nc4cc5c(nc4n3C)CCN(C[C@H](N)CF)C5=O)n(CC3CC3)c2c1` [Example 18, (S)-7-(2-amino-3-fluoropropyl)-2-(1-(cyclopropylmethyl)-6-methoxy-1H-indol-2-yl)-3-methyl-3,5,6,7-tetrahydro-8H-imidazo[4,5-b][1,6]naphthyridin-8-one], the IC50 lay in the range of 501 to 1000 nM.

As for `Cn1c(-c2cc3cccc(OC[C@@H]4CCC(=O)NC4)c3n2CC2CC2)nc2cc3c(nc21)CCN(C[C@H](N)CF)C3=O` [Example 37, 7-((S)-2-amino-3-fluoropropyl)-2-(1-(cyclopropylmethyl)-7-(((R)-6-oxopiperidin-3-yl)methoxy)-1H-indol-2-yl)-3-methyl-3,5,6,7-tetrahydro-8H-imidazo[4,5-b][1,6]naphthyridin-8-one], the IC50 fell in the range of 501 to 1000 nM.

`Cn1c(-c2cc3cccc(OC[C@H]4CCC(=O)NC4)c3n2CC2CC2)nc2cc3c(nc21)CCN(C[C@H](N)CF)C3=O` [Example 36, 7-((S)-2-amino-3-fluoropropyl)-2-(1-(cyclopropylmethyl)-7-(((S)-6-oxopiperidin-3-yl)methoxy)-1H-indol-2-yl)-3-methyl-3,5,6,7-tetrahydro-8H-imidazo[4,5-b][1,6]naphthyridin-8-one]: the IC50 is > 1000 nM.
